{"source": "patent US9624288B2", "about": "“Engineered receptors and their use” (University of Pittsburgh—Of the Commonwealth System of …, priority 2012, dated 2017)", "molecules": {"B1": {"name": "EG channel: ELIC extracellular domain fused to human GlyR α1 transmembrane domain; amine-gated Cl- channel, delivered as expression plasmid in vivo (protein)", "chain": "MGLRALMLWLLAAAGLVRESLQAPADNAADARPVDVSVSIFINKIYGVNTLEQTYKVDGYIVAQWTGKPRKTPGDKPLIVENTQIERWINNGLWVPALEFINVVGSPDTGNKRLMLFPDGRVIYNARFLGSFSNDMDFRLFPFDRQQFVLELEPFSYNNQQLRFSDIQVYTENIDNEEIDEWWIRGKASTHISDIRYDHLSSVQPNQNEFSRITVRIDAVRQMGYYLIQMYIPSLLIVILSWISFWINMDAAPARVGLGITTVLTMTTQSSGSRASLPKVSYVKAIDIWMAVCLLFVFSALLEYAAVNFVSRSQPARAAKIDKISRIGFPMAFLIFNMFYWIRGITL", "modifications": "Engineered Chloride Channel Receptor", "notes": "ELIC extracellular domain fused to human GlyR α1 transmembrane domain; amine-gated Cl- channel, delivered as expression plasmid in vivo"}}, "key": {"[1]": {"biological_target": "T1, EGRAFY mutant (R91A, F188Y; SEQ ID NO: 15) (Dickeya chrysanthemi, UniProt P0C7B7, F187Y/INS163G/R91A)", "T1 construct": "expressed in transfected cells; host or cells: Xenopus laevis oocytes", "T1 sequence (P0C7B7 other isoform, or with tags, fused parts or gaps R91A/INS163G/F187Y)": "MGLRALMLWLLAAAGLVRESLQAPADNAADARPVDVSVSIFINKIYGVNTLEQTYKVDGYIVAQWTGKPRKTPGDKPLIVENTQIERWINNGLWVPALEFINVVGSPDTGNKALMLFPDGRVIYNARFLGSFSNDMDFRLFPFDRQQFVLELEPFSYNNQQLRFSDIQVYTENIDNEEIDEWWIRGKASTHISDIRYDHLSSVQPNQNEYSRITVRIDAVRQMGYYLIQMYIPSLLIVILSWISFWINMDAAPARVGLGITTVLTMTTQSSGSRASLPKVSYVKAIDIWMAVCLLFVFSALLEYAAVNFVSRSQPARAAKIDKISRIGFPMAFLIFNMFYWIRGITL", "assay": "Two-electrode voltage clamp, amine agonist activation of the EGRAFY mutant in oocytes", "assay_type": "cell-based, Erwinia chrysanthemi / human", "protocol": "(§1) For pH measurements, 10 mM MES was added. […] Non-linear regressions were performed using Prism software (Graphpad). […] (FIG. 2)."}, "[2]": {"biological_target": "T2, EG3 (SEQ ID NO: 12) ELIC-GlyR (EG) Cl- channel (Dickeya chrysanthemi, UniProt P0C7B7, INS163G)", "T2 construct": "expressed in transfected cells; host or cells: Xenopus laevis oocytes injected with construct DNA in the pAAV vector", "assay": "Two-electrode voltage clamp, amine agonist activation of the EG channel in Xenopus oocytes", "assay_type": "cell-based, Erwinia chrysanthemi / human", "details": "for Hill slope / Hill coeff.: agonist dose response on EG channel", "protocol": "as §1"}, "[3]": {"details": "prescription drug for cystinosis; cited from earlier work"}, "[4]": {"tested_on": "CFA-induced inflammation of the hind paw", "details": "for mechanical hypersensitivity, EG channel not activated: EG rats before cysteamine versus control group", "protocol": "In one experiment, 8 rats were assigned to two groups to receive either EG expression plasmid or the control plasmid […] the EG insertion. […] Thereafter, inflammation was induced in the same hind paw by complete Freund's adjuvant (CFA) injection (50 μl). Hypersensitivity was measured using a Von Frey pain-testing device after CFA injection. This test measures the maximum force applied to the paw through a flexible thin wire before paw withdrawal. Note that this version of the channel design, EG3 (SEQ ID NO: 12), requires a small agonist molecule (propylamine or cysteamine) to open the Cl^− channels.\nRats were randomly assigned to two groups to receive a subcutaneous injection of 1 mg (in 200 μl) purified EG expression vector into the left hind paw or the control plasmid vector without the EG insertion in an identical fashion. […] After CFA injections, the rats were tested both before and after cysteamine administration to assess the specific analgesic effects from the expressed EG channels.\nThe Institutional Animal Care and Use Committee at the University of Pittsburgh approved all animal procedures used in the studies. Male Sprague-Dawley rats, weighing 220-250 g, were obtained from Harlan Laboratories, allowed to acclimate to the housing and experimental facilities, evaluated for baseline behavioral response to thermal and mechanical pain, and then subjected to inflammatory pain model and behavioral testing. The expression vectors, 1000 μg in a volume of 200 μl phosphate-buffered saline (PBS), were injected directly into the plantar of the left hind paw with a 27-gauge needle under brief 2.5% isoflurane anesthesia. One week after the vector injection, 50 μl of CFA (Sigma, St. Louis, Mo., USA) were injected into the same hind paw subcutaneously with a 27-gauge needle under brief isoflurane anesthesia, as described previously {Fraser, 2000 #180}.\nAnimals were placed above a grid floor inside a plastic divider. Thresholds to the mechanical pressures applied directly onto the plantar by a blunt metal filament of 100 mm in length and 0.38 mm in diameter were assessed using a custom-made von Frey apparatus. The apparatus uses a high precision load cell (100 g capacity and 0.01 g accuracy) interfaced with a PASPORT load cell amplifier (Model PS-2205, PASCO Scientific, Roseville, Calif.) for continuously measuring the forces applied to the plantar through the metal filament. The DataStudio software from PASCO Scientific was used to record the entire time course of the applied forces and the maximum force immediately before the paw withdrawal. The threshold values were determined as a mean of at least three separate measurements under each testing condition.\nBoth von Frey and plantar tests were conducted using the schedule as depicted in FIG. 3a. On each testing day after CFA injection, behavioral evaluations were repeated before and at least 15 min after cysteamine administration. Cysteamine (500 μl of 100 mM solution in PBS) was injected subcutaneously elsewhere on the body to prevent tissue damage from repeated injections."}, "[5]": {"tested_on": "CFA-induced inflammation of the hind paw", "assay": "Plantar (Hargreaves) test of thermal hypersensitivity after CFA-induced inflammation", "assay_type": "in vivo, rat", "protocol": "The plantar sensitivity to heat-induced pain was examined using a plantar algesia meter (Model 390G; IITC Life Science, Woodland Hills, Calif.; active intensity, 23%). Rats were placed inside a plastic divider on a constant-temperature glass plate and acclimated to the environment for at least 20 minutes before testing. A heat source was focused directly onto the plantar surface of the hind paw. Once activated, the apparatus applied a continuous heat stimulus to the plantar surface to evoke a distinctive reflex of paw withdrawal. The rats were examined with at least a five-minute interval between consecutive tests. Paw withdrawal latencies were recorded and averaged for each hind paw. A 22-second automatic cut-off time was set to prevent tissue damage from heating."}, "EG channel": {"biological_target": "EG channel (Dickeya chrysanthemi, UniProt P0C7B7, INS163G)", "protocol": "Non-linear regressions were performed using Prism software (Graphpad)."}, "ELIC-GlyR chimeras": {"tested_on": "ELIC-GlyR chimeras", "assay": "Cysteamine response of ELIC-GlyR chimera constructs in Xenopus oocytes", "assay_type": "cell-based, Erwinia chrysanthemi / human", "excerpt": "The EG chimera was constructed by fusing the extracellular domain of ELIC with the transmembrane domain of the α1 subunit of human GlyR. Five constructs were made to test the importance of interface elements at the fusion junction (pre-TM1), the loop between transmembrane helices 2 and 3 (TM23), and C-terminus (Figure S1 a). In addition, the long cytoplasmic loop was removed to facilitate homogeneous expression (i.e., “VSR . . . KID” was replaced with “[…]”). All designed constructs expressed functional channels in Xenopus oocytes and were responsive to the agonist cysteamine. The constructs mostresponsive to cysteamine, EG and EGd (Figure S1 b), included a native GlyR TM23 loop and an ELIC C-terminus (Figure S1). The fusion junction had less effect on cysteamine response (compare EG and EGd)."}}, "note": "Read-outs that look alike come from different tables or passages of the source."}
{"molecule": "CCCN", "note": "[propylamine]", "values": [{"measurement": "increase in potency in the EGRAFY mutant as compared to the EG channel", "setting": "[1]", "result": "~3 orders of magnitude"}, {"measurement": "Hill coeff.", "setting": "[1]; EGRAFY mutant, n=6", "result": "0.98±0.07"}, {"measurement": "EC50", "setting": "[2]", "result": "740 ± 110", "unit": "µM"}, {"measurement": "Hill slope / Hill coeff.", "setting": "[2]", "result": "0.5±0.04"}]}
{"molecule": "NCCS", "note": "[cysteamine]", "values": [{"measurement": "safety in clinical use", "setting": "[3]", "result": "safe with no psychoactive effects"}, {"measurement": "mechanical hypersensitivity / pain scores after cysteamine administration", "setting": "[4]; control plasmid rats (no EG), after CFA, listed as Cysteamine", "result": "no analgesia"}, {"measurement": "thermal hypersensitivity after cysteamine administration", "setting": "[5]; control plasmid rats (no EG), after CFA", "result": "not inherently an analgesic"}, {"measurement": "thermal hypersensitivity after cysteamine administration", "setting": "[5]; rats expressing EG, after CFA", "result": "significantly attenuated"}, {"measurement": "EC50", "setting": "[2]", "result": "960 ± 120", "unit": "µM"}, {"measurement": "Hill slope / Hill coeff.", "setting": "[2]", "result": "1.1±0.1"}]}
{"molecule": "B1", "values": [{"measurement": "mechanical hypersensitivity, EG channel not activated", "setting": "[4]; after CFA", "result": "did not produce measurable changes"}, {"measurement": "mechanical hypersensitivity, EG channel not activated", "setting": "[4]; after CFA, listed as EG", "result": "no measureable effects"}, {"measurement": "mechanical hypersensitivity, EG channel not activated", "setting": "[4]; after CFA, listed as EG channels", "result": "little measurable changes"}, {"measurement": "basal mechanical and thermal thresholds", "setting": "[4]; rat, in vivo", "result": "neither EG nor the control plasmids caused measureable changes"}, {"measurement": "shift in reversal potential upon replacing Na+ with choline", "setting": "EG channel", "result": "no significant shift"}, {"measurement": "shift in reversal potential upon replacing Cl- with gluconate", "setting": "EG channel; 130 mM external solution", "result": 50, "unit": "mV"}, {"measurement": "hypersensitivity to heat-induced pain, EG channel not activated", "setting": "[5]; EG rats before cysteamine versus control group", "result": "partially alleviated"}, {"measurement": "latency to paw withdrawal, EG injection compared to the control", "setting": "[5]; after CFA, EG n=4, control n=5", "result": "significant attenuation of thermal hypersensitivity"}, {"measurement": "cysteamine response of the construct", "setting": "ELIC-GlyR chimeras", "result": "mostresponsive"}]}
